The subject of test [1] is MCF7. Description: Induction of apoptosis in human MCF7 cells assessed as activation of caspase 9 at 3 times IC50 after 16 to 36 hrs by immunoblotting. Type of test: functional, cell-based. In general terms: In western blotting, separated proteins are transferred to a membrane and probed.
Test [2] addresses Cellular tumor antigen p53 (Homo sapiens) (UniProt P04637). Description: Induction of p53 activation in human MCF7 cells assessed as phosphorylation at Ser15 at 3 times IC50 after 4 to 36 hrs by Western blot analysis. The class given is cell-based.
Test [3] concerns MCF7. Description: Antiproliferative activity against human MCF7 cells after 3 days by sulforhodamine-B colorimetric assay. The class given is functional, cell-based. To be noted: MCF7, 72 h. (In SRB staining, fixed cells bind dye roughly in proportion to their protein.)
In test [4] the test system is MCF7. Nature of the test: Cell cycle arrest in human MCF7 cells assessed as accumulation at G0/G1 phase after 48 hrs by flow cytometry (reference value: 62.79 +/- 1.30 %). Type of test: functional. Background: A flow cytometer gives signals particle by particle.
In test [5] the test system is MCF7. Description: Cell cycle arrest in human MCF7 cells assessed as accumulation at […] phase after 48 hrs by flow cytometry (reference value: 19.29 +/- 1.68 %). The class given is functional.
For test [6], the system named is MCF7. Description: Cell cycle arrest in human MCF7 cells assessed as accumulation at G2/M phase after 48 hrs by flow cytometry (reference value: 13.26 +/- 2.98 %). Type of test: functional.
The test system of test [7] is MCF7. Nature of the test: Induction of apoptosis in human MCF7 cells at 3 times IC50 after 48 hrs by using Annexin V-FITC staining by flow cytometry (reference value: 0.92 +/- 1.29 %). Type of test: functional.
The target of test [8] is Eukaryotic translation initiation factor 2 subunit 1 (Homo sapiens) (UniProt P05198). Nature of the test: Induction of eIF2alpha phosphorylation in human MCF7 cells at 3 times IC50 after 36 hrs by Western blot analysis. The class given is cell-based.

The source made the active and inactive calls. The rule behind the calls is not given here.

Sequence of Eukaryotic translation initiation factor 2 subunit 1 (Homo sapiens) (P05198 whole entry): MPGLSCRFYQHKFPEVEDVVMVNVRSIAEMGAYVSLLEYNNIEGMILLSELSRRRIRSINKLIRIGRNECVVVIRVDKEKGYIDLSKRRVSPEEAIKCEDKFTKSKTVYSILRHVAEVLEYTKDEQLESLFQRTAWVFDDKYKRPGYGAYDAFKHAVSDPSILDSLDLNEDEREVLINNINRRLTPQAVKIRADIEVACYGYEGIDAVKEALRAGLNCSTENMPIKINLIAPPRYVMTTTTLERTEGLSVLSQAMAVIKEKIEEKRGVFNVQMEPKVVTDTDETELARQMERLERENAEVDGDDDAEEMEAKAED
Sequence of Cellular tumor antigen p53 (Homo sapiens) (P04637 whole entry, looked up): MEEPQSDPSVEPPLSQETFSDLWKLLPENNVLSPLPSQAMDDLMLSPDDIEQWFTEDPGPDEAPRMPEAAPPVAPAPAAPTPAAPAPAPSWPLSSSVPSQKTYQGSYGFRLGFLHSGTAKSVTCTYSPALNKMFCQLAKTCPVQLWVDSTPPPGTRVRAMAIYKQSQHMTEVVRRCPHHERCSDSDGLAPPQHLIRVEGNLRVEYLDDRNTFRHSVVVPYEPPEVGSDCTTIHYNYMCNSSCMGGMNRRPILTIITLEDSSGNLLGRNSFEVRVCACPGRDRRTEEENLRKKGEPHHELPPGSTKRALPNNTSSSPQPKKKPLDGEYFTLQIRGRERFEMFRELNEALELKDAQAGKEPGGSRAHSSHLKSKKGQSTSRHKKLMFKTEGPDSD

As for `CC(=O)O[C@H]1C(=O)[C@@]2(C)[C@H]([C@H](OC(=O)c3ccccc3)[C@]3(O)C[C@H](OC(=O)[C@H](O)[C@@H](NC(=O)c4ccccc4)c4ccccc4)C(C)=C1C3(C)C)[C@]1(OC(C)=O)CO[C@@H]1C[C@@H]2O`, the outcome in the test on MCF7 [1] was Active. Also, the result in test [2] was inactive.
As a reminder, the IC50 is the point on the concentration scale where inhibition reaches its midpoint. The molecule `Clc1ncnc2c1ncn2CC1COc2ccccc2S1` (racemic) came in with an IC50 in the test on MCF7 [3] of 10.6 µM.
Still for that read-out and setting: the result for `Brc1ncnc2c1ncn2CC1COc2ccccc2S1` (racemic) reads 6.18 µM; that for `Clc1nc(Cl)c2ncn(CC3COc4ccccc4S3)c2n1` (racemic), 8.97 µM.
Consider `Clc1ncnc2c1ncn2CC1CSc2ccccc2O1` (racemic), for which the IC50 in the test on MCF7 [3] was 9.24 µM. In addition, the Activity with MCF7 [4] came out at 62.87%; in the test with MCF7 [5], 13.77%; in the test on MCF7 [6], 23.35%; with MCF7 [7] it was 37.99%. Besides, the result (in test [8]; in the test with MCF7 [1]) was Active. Further, in test [2], the outcome was inactive.
In the test on MCF7 [3], `Brc1ncnc2c1ncn2CC1CSc2ccccc2O1` (racemic) showed a concentration for half-maximal inhibition (IC50) of 4.87 µM. In addition, the Activity in the test with MCF7 [4] turned out to be 51.56%; with MCF7 [5], 17.06%; with MCF7 [6] it was 31.37%; in the test with MCF7 [7], 14.33%. Moreover, the result (in test [8]; in the test with MCF7 [1]) was Active. The result in test [2] was inactive.
For the molecule `Clc1nc(Cl)c2ncn(CC3CSc4ccccc4O3)c2n1` (racemic), the concentration for half-maximal inhibition (IC50) in the test with MCF7 [3] was found to be 2.75 µM. Also, the Activity was 45.28% in the test with MCF7 [4], 10.83% with MCF7 [5], 43.89% in the test on MCF7 [6] and 70.08% in the test on MCF7 [7]. The outcome (in test [8]; with MCF7 [1]) was Active. In test [2], the result was inactive.
`Nc1ncnc2c1ncn2CC1CSc2ccccc2O1` (racemic): in the test on MCF7 [3], the IC50 was more than 30 µM.
In turn, `Clc1ncnc2c1ncn2CC1COc2ccccc2O1` (racemic) registered a concentration for half-maximal inhibition (IC50) with MCF7 [3] of 18.8 µM.
As to `Brc1ncnc2c1ncn2CC1COc2ccccc2O1` (racemic), the concentration for half-maximal inhibition (IC50) in the test with MCF7 [3] came out at 7.64 µM. Moreover, the Activity was 53.02% with MCF7 [4], 10.27% in the test on MCF7 [5], 36.71% in the test with MCF7 [6] and 21.66% with MCF7 [7].
For `Clc1nc(Cl)c2ncn(CC3COc4ccccc4O3)c2n1` (racemic), in the test with MCF7 [3], half-maximal inhibition (IC50) required 19.6 µM.
`Nc1ncnc2c1ncn2CC1COc2ccccc2O1` (racemic) came in with an IC50 in the test with MCF7 [3] of more than 30 µM.
